Results as given in ChEMBL document CHEMBL5291721, “A preclinical secondary pharmacology resource illuminates target-adverse drug reaction associations of marketed drugs” (Nat Commun, 2023).

What was measured:
[1] = target: T1, Alpha-1A adrenergic receptor (Homo sapiens, UniProt P35348); format: functional, cell-based
T1 sequence (P35348 whole entry): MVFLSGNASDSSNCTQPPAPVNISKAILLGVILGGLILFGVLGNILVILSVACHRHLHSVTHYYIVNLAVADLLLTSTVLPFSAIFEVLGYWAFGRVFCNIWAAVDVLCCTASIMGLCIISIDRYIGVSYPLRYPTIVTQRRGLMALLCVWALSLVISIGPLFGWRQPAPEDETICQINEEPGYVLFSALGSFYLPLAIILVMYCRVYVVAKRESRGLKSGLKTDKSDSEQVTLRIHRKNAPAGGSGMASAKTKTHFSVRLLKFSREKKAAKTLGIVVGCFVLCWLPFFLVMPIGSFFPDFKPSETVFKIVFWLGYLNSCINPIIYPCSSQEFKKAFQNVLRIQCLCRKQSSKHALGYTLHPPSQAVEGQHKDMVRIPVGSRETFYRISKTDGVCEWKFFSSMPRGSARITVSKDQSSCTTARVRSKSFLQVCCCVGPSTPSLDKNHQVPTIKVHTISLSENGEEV

[2] = target: Gamma-aminobutyric acid receptor subunit alpha-1 (Rattus norvegicus, UniProt P62813); format: functional
[3] = target: Growth hormone secretagogue receptor type 1 (Homo sapiens, UniProt Q92847)
[4] = target: T2, 5-hydroxytryptamine receptor 3A (Homo sapiens, UniProt P46098); format: functional
T2 sequence (P46098 whole entry): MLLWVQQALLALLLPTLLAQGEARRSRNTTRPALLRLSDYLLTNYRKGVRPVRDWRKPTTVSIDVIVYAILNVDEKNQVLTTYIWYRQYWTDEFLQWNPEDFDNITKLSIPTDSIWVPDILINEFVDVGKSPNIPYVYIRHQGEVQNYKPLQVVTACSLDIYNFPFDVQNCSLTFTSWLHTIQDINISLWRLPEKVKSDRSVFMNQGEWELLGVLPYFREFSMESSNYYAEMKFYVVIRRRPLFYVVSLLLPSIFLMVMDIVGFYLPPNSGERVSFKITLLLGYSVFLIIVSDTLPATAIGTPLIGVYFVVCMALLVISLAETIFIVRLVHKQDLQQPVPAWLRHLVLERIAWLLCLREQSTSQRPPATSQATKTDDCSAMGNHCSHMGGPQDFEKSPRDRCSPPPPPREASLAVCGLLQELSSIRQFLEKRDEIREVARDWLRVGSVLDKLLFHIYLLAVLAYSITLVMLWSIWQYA

[5] = target: Melanocortin receptor 3 (Homo sapiens, UniProt P41968)
[6] = target: Motilin receptor (Homo sapiens, UniProt O43193)
[7] = target: T3, Prostaglandin G/H synthase 1 (Rattus norvegicus, UniProt Q63921); format: functional
T3 sequence (Q63921 whole entry): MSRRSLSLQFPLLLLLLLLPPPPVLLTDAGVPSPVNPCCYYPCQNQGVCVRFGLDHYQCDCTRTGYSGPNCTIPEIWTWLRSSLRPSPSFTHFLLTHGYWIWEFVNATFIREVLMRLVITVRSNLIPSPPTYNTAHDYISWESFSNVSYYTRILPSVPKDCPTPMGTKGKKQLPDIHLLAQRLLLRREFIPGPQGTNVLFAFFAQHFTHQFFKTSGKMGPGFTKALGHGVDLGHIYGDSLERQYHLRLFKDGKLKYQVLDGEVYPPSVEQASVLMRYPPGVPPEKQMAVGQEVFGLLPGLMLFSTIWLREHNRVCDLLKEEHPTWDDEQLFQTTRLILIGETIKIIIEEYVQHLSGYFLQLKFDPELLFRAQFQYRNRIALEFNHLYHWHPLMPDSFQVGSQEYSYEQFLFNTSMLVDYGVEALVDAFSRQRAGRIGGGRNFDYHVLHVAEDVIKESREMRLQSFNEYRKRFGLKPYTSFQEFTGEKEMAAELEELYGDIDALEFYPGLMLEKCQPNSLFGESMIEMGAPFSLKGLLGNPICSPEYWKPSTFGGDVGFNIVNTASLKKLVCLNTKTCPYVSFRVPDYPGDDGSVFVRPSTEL

[8] = target: T4, Equilibrative nucleoside transporter 1 (Homo sapiens, UniProt Q99808)
T4 sequence (Q99808 whole entry): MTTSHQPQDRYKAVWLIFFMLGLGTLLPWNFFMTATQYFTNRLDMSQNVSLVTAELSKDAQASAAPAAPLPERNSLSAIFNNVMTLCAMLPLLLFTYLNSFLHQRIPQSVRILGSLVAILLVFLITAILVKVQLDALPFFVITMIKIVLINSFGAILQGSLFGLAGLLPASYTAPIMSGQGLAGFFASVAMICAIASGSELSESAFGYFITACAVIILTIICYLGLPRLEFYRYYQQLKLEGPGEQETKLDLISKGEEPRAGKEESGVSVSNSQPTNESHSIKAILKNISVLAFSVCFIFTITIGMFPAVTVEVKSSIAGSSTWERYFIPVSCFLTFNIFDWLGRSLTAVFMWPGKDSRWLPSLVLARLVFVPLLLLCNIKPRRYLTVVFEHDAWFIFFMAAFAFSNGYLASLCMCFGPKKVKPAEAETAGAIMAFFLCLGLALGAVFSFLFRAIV

[9] = target: T5, Thromboxane A2 receptor (Homo sapiens, UniProt P21731)
T5 sequence (P21731 whole entry): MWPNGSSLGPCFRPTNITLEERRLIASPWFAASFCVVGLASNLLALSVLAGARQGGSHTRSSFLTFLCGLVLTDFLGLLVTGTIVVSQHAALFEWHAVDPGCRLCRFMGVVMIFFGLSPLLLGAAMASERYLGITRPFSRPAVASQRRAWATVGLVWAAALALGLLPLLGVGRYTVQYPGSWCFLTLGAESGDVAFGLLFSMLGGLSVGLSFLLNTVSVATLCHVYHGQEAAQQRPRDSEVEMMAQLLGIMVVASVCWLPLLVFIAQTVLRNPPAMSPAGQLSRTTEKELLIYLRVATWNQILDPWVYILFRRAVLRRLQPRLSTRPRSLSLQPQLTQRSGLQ

Measured: AC50
Note: assay procedure not described here.

Chain of Melanocortin receptor 3 (P41968 whole entry): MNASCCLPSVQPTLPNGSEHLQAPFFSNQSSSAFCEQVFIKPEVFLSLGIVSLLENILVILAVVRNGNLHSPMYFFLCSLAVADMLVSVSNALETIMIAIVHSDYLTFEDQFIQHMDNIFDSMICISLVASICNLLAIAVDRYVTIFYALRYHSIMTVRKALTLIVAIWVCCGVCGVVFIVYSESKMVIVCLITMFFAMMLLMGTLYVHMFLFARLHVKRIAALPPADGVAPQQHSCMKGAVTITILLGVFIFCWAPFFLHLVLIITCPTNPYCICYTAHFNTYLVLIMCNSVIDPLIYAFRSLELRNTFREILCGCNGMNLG
Chain of Gamma-aminobutyric acid receptor subunit alpha-1 (P62813 whole entry): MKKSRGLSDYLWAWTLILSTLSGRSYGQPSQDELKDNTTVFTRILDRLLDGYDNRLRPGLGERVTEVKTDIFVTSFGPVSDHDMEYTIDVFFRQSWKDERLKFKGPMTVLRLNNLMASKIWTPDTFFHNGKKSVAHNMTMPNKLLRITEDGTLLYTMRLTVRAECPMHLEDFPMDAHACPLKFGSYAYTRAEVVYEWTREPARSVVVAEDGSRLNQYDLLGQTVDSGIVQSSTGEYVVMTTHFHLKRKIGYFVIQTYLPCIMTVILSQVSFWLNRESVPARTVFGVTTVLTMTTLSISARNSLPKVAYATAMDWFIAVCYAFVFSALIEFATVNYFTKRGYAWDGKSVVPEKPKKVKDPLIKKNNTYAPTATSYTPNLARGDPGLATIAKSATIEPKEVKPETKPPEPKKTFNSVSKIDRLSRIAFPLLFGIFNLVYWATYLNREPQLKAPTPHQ
Chain of Motilin receptor (O43193 whole entry): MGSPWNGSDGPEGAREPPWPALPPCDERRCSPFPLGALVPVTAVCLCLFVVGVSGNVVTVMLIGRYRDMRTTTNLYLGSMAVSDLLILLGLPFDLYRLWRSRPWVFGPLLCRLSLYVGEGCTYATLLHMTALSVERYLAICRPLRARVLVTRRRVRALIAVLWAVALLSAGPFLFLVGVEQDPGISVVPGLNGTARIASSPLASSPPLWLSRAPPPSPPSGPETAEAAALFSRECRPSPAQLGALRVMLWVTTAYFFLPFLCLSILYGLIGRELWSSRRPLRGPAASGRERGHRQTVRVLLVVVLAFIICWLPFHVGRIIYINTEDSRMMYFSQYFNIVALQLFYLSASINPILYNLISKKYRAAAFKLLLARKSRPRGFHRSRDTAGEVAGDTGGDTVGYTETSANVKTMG
Chain of Growth hormone secretagogue receptor type 1 (Q92847 whole entry): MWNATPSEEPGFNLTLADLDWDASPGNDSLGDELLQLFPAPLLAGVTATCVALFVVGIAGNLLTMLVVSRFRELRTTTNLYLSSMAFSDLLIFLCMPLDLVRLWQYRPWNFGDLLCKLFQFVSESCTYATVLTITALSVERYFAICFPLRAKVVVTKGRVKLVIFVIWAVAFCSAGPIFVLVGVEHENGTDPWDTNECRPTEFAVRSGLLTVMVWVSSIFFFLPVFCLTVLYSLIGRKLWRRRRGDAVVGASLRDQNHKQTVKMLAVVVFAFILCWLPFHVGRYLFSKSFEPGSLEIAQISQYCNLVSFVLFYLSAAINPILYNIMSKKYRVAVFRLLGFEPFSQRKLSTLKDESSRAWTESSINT

CCC(NC(C)C)C(O)c1ccc(O)c2[nH]c(=O)ccc12 (centres undefined) [PROCATEROL]
> 30 µM: all assays above

CCC(=O)O[C@](Cc1ccccc1)(c1ccccc1)[C@H](C)CN(C)C [PROPOXYPHENE]
> 10 µM: [2] | [6]
> 30 µM: all other assays above

CCc1nc(N)nc(N)c1-c1ccc(Cl)cc1 [PYRIMETHAMINE]
> 30 µM: [1] | [4] | [8]
> 10 µM: all other assays above

C=CC[N+]1([C@H]2C[C@H]3[C@@H]4CC[C@H]5C[C@H](O)[C@@H](N6CCOCC6)C[C@]5(C)[C@H]4CC[C@]3(C)[C@H]2OC(C)=O)CCCC1 [ROCURONIUM]
> 30 µM: all assays above

CCCN1CCCC[C@H]1C(=O)Nc1c(C)cccc1C [ROPIVACAINE]
> 30 µM: all assays above

C=CCN1CCc2nc(N)sc2CC1 [TALIPEXOLE]
2.5 µM: [1]
> 30 µM: all other assays above

CCOC(=O)c1ccc(C#Cc2ccc3c(c2)C(C)(C)CCS3)nc1 [TAZAROTENE]
> 10 µM: [2] | [6]
> 30 µM: all other assays above

Cn1c(=O)c2c(ncn2CCOC(=O)C(C)(C)Oc2ccc(Cl)cc2)n(C)c1=O [THEOFIBRATE]
> 30 µM: all assays above

COc1cc(C(=O)NC2CCCNC2)cc(OC)c1OC (centres undefined) [TROXIPIDE]
> 10 µM: [7]
> 30 µM: all other assays above

CC(C(=O)O)c1ccc2c(c1)CC(=O)c1ccccc1S2 (centres undefined) [ZALTOPROFEN]
> 30 µM: all assays above

CC(c1cc2ccccc2s1)N(O)C(N)=O (centres undefined) [ZILEUTON]
> 30 µM: [1] | [4] | [7]
> 10 µM: all other assays above
